Experimental data taken from patent EP4755880A1, “SUBSTITUTED NITROGEN-CONTAINING BICYCLIC COMPOUND AND USE THEREOF” (Sunshine Lake Pharma Co., Ltd., priority 2023, dated 2025).

Assays:
[1] = molecular target: PARP1 (Homo sapiens, UniProt P09874); experiment: Inhibition of PARP1 enzyme activity (ELISA, chemiluminescence); format: biochemical; settings: for IC50: ELISA, histone-coated plate, NAD+, 60 min at 25 °C; for Selectivity PARP2/PARP1: ratio of PARP2 IC50 to PARP1 IC50
Method: (§1) Experimental Objective: To evaluate the inhibitory effect of the compounds of the present invention on the enzyme activities of PARP1 and PARP2 using ELISA.
(§2) • 1. histone-coated 384-well plates was prepared: 25 µL of histone solution was added to each well and incubated overnight at 4 °C. • 2. PBST buffer, blocking buffer (PBS buffer with 5% BSA and 0.05% Tween-20 added) and detection buffer (20 mM HEPES pH 7.5 + 100 mM NaCl + 2 mM DTT + 0.002% Tween-20 + 0.1% BSA) were prepared. • 3. The histone-coated 3 84-well plate was washed three times with PBST buffer, blocked at room temperature with 50 µL blocking buffer for 1 hour, and then washed three times with PBST buffer. • 4. Test compounds were prepared as 2000-fold stock solutions in DMSO. 50 nL of the stock solution was mixed with 19.95 µL detection buffer, and 5 µL of the gradient-diluted test compound was transferred to each well. • 5. Enzymatic reaction (PARP1): PARP1 & DNA mix was pre-incubated at 25 °C for 10 minutes. 10 µL of the PARP1 & DNA mix was added to each well and incubated with the test compound at room temperature for 10 minutes. […] Finally, the 384-well plate was washed three times with PBST buffer. Enzymatic reaction (PARP2): PARP2 was pre-incubated at 25 °C for 10 minutes. 10 µL of PARP2 was added to each well and incubated with the test compound at room temperature for 10 minutes. […] Finally, the 384-well plate was washed three times with PBST buffer. • 6. Detection (PARP1): 20 µL of anti-Poly/Mono-ADP Ribose Rabbit mAb was added and incubated at room temperature for 1.5 hours, followed by three washes of the 384-well plate with PBST buffer. Then, 20 µL of diluted anti-rabbit IgG, HRP-linked Antibody (diluted 1:2000 in blocking buffer) was added and incubated at room temperature for 1 hour. After washing the plate three times with PBST buffer, 25 µL of a 1:1 mixture of Femto-ECL Substrate A and Femto-ECL Substrate B was added. Detection (PARP2): 25 µL of Strep-HRP was added and incubated at room temperature for 1 hour, followed by three washes of the 384-well plate with PBS buffer. Then, 25 µL of a 1:1 mixture of Femto-ECL Substrate A and Femto-ECL Substrate B was added. • 7. Chemiluminescence intensity was measured using an Envision multimode microplate reader. • 8. Data Processing
(§3) The inhibition rate was calculated in Excel using formula (1). inh% = (Max−Signal)/(Max−Min)*100 [formula]
(§4) The IC50 value was obtained by fitting the data in XL-Fit using formula (2). Y = bottom + (top−bottom)/(1+(IC50/X)*HillSlope); [formula] wherein Y is the inhibition percentage and X is the compound concentration.

[2] = system: DLD-1 BRCA2(-/-) cells; experiment: Inhibition of proliferation of DLD-1 BRCA2(-/-) cells (CTG method); format: cell-based; settings: Homo sapiens, DLD-1, 168 h; 7 days incubation, CellTiter-Glo
Method: • 1. Cell Pretreatment: DLD-1 BRCA2(-/-) cells were cultured in growth medium 1640 + 10% FBS (fetal bovine serum) + 1% Penicillin-Streptomycin. Cells in the logarithmic growth phase were digested with trypsin-EDTA, centrifuged, and resuspended. DLD-1 BRCA2(-/-) cells were seeded at 1,000 cells/well in sterile 96-well opaque plates, 75 µl per well. After seeding, the cell culture plates were incubated overnight at 37 °C with 5% CO2 before adhesion, followed by treatment with the test compounds. • 2. DLD-1 BRCA2(-/-) Cell Drug Treatment: The test compound was prepared as a 10 mM stock solution using DMSO. The test compound was then diluted to a 4× working solution using growth medium (starting at 40 µM, with 9 4-fold dilutions). 25 µl of 4× working solution was added to each well to achieve final concentrations of 10000, 2500, 625, 156, 39, 9.7, 2.4, 0.61, and 0.152 nM, respectively. Blank control wells containing the same DMSO concentration were also included, with three replicates for each concentration. After adding the test compound, the cells were incubated at 37 °C with 5% CO2 for 7 days. • 3. After incubation, 100 µl of CellTiter-Glo® Reagent was added to each well, and […] intensity was measured. A curve was fitted using GraphPad software, and the IC50 value for cell proliferation inhibition was calculated.

[3] = system: MDA-MB-436 cells; experiment: Inhibition of proliferation of MDA-MB-436 cells (CellTiter-Glo); format: cell-based; settings: Homo sapiens, MDA-MB-436, 168 h, 7 days incubation
Method: • 1. Cell Pretreatment: MDA-MB-436 cells were cultured in DMEM + 10% FBS + 1% penicillin-dip antibiotics + 1% ITS + 16 µg/ml glutathione. Cells in the logarithmic growth phase were digested with trypsin-EDTA, centrifuged and resuspended, and then seeded at a rate of 500-1000 cells/well in sterile 96-well opaque plates, 90 µl per well. After seeding, the cell culture plates were incubated overnight at 37°C with 5% CO2 before drug treatment. • 2. Drug treatment of MDA-MB-436 cells: The test compound was prepared as a 10 mM stock solution using DMSO. The drug was then diluted to a 10× working solution using growth medium (the compound was started at 100 µM and diluted 4-fold to achieve 9 concentrations). 10 µl of the 10× working solution was added to each well to achieve final drug concentrations of 10000, 2500, 625, 156, 39, 9.7, 2.4, 0.61, and 0.152 nM, respectively. Blank control wells containing the same DMSO concentration were also included, with three replicates for each concentration. After drug addition, the cells were incubated at 37°C with 5% CO2 for 7 days. • 3. After incubation, 100 µl of CellTiter-Glo® Reagent was added to each well, and luminescence was measured. The IC50 value of cell proliferation inhibition was calculated using GraphPad software to fit the curve. Table E: Results of the inhibitory effect of the compound of this invention on the proliferation of MDA-MB-436 cells.

[4] = molecular target: PARP2 (Homo sapiens, UniProt Q9UGN5); experiment: biochemical;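 also: PARP2 enzyme ELISA on histone-coated plates, Strep-HRP detection with chemiluminescence read-out, 10 min compound preincubation with enzyme, inhibition scaled between Max and Min signal controls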
Sequence of PARP2 (Q9UGN5 whole entry): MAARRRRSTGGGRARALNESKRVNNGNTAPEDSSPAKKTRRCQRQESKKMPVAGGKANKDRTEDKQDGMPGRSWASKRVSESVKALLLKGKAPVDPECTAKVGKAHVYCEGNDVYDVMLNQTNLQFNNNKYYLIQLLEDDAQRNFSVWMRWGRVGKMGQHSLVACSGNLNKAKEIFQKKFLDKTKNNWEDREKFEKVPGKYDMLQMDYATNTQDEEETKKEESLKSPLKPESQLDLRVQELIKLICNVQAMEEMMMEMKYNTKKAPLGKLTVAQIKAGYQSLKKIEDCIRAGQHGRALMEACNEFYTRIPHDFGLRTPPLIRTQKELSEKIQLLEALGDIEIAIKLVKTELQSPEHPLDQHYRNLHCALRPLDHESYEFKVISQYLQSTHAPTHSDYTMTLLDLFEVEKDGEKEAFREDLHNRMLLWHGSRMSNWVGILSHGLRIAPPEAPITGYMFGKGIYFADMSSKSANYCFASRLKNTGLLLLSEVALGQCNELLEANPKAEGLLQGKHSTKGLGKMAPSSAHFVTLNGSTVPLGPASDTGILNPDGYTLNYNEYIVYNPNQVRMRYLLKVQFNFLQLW
Method: as §1, §2, §3, §4

Sequence of PARP1 (P09874 whole entry): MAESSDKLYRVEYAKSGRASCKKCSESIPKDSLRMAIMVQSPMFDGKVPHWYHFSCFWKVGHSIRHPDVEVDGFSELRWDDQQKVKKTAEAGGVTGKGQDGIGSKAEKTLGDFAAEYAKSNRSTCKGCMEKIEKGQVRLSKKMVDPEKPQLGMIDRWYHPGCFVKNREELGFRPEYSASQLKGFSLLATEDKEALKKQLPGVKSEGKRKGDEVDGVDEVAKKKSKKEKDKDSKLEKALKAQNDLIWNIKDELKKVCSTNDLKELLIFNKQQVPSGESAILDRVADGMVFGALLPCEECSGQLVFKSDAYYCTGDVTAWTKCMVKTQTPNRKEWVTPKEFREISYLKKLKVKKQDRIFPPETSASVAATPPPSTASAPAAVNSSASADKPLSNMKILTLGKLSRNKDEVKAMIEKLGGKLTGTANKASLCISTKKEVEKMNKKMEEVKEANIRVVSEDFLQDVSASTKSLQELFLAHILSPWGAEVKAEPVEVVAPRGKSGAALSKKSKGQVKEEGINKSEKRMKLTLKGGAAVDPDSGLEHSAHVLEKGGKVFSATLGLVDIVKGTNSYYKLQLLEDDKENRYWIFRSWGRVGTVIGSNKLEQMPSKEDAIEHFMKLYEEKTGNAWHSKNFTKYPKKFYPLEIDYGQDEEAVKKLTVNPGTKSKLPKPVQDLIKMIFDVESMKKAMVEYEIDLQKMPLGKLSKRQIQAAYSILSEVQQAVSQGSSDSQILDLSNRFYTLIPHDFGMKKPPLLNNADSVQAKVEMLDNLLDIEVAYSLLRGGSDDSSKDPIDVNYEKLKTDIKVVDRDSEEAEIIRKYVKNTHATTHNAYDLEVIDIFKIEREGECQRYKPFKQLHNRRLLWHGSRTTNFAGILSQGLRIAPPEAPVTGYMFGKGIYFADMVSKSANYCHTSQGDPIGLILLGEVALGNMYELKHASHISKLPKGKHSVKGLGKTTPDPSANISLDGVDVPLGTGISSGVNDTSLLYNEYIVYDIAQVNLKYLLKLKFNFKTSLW

| Compound | IC50 [1] [nM] | Selectivity PARP2/PARP1 [1] | IC50 [2] [nM] | IC50 [3] [nM] | IC50 [4] [nM] |
| --- | --- | --- | --- | --- | --- |
| CNC(=O)c1ccc2c(n1)COC[C@H]1CN(Cc3cc(OC(F)F)c4nc(C)c(=O)[nH]c4c3)CCN21 [Example 59, (R)-3-((8-(difluoromethoxy)-2-methyl-3-oxo-3,4-dihydroquinoxalin-6-yl)methyl)-N-methyl-2,3,4,4a,5,7-hexahydro-1H-pyrazino[2,1-c]pyrido[3,2-e][1,4]oxazepine-9-carboxamide] | 1.9 | 650.4 | 8 | 26.3 | 1220 |
| C#Cc1cc(CN2CCN(c3ccc(C(=O)NC)nc3F)CC2)cc2[nH]c(=O)c(C)nc12 [Example 20, 5-(4-((8-ethynyl-2-methyl-3-oxo-3,4-dihydroquinoxalin-6-yl)methyl)piperazin-1-yl)-6-fluoro-N-methylpicolinamide] | 0.6 | 124.8 | 2.4 | 3.3 | 68.9 |
| CNC(=O)c1ccc(N2CCN(Cc3cc(-c4cccnc4)c4nc(C)c(=O)[nH]c4c3)CC2)c(F)n1 [Example 11, 6-fluoro-N-methyl-5-(4-((2-methyl-3-oxo-8-(pyridin-3-yl)-3,4-dihydroquinoxalin-6-yl)methyl)piperazin-1-yl)picolinamide] | 3.01 | 224.6 | 12.9 | 10.7 | 676 |
| CC#Cc1cc(CN2CC=C(c3ccc(C(=O)NC4CC4)nc3F)CC2)cc2[nH]c(=O)c(C)nc12 [Example 39, N-cyclopropyl-2-fluoro-1'-((2-methyl-3-oxo-8-(prop-1-yn-1-yl)-3,4-dihydroquinoxalin-6-yl)methyl)-1',2',3',6'-tetrahydro-[3,4'-bipyridine]-6-carboxamide] | 2.9 | 206.8 | 7.7 | < 0.038 | 599 |
| CC#Cc1cc(CN2CCN(c3ccc(C(=O)NC)nc3F)CC2)c(F)c2[nH]c(=O)c(C)nc12 [Example 21, 6-fluoro-5-(4-((5-fluoro-2-methyl-3-oxo-8-(prop-1-yn-1-yl)-3,4-dihydroquinoxalin-6-yl)methyl)piperazin-1-yl)-N-methylpicolinamide] | 6.7 | >1480 | 22.2 | 22.9 | > 10000 |
| CC#Cc1cc(CN2CCN(c3ccc(C(=O)NC4CC4)nc3F)CC2)c(F)c2[nH]c(=O)c(C)nc12 [Example 47, N-cyclopropyl-6-fluoro-5-(4-((5-fluoro-2-methyl-3-oxo-8-(prop-1-yn-1-yl)-3,4-dihydroquinoxalin-6-yl)methyl)piperazin-1-yl)picolinamide] | 6.9 | >1456.3 | 18.6 | 0.6 | > 10000 |
| CNC(=O)c1ccc(N2CCN(Cc3cc(OC4CC(F)(F)C4)c4nc(C)c(=O)[nH]c4c3)CC2)c(F)n1 [Example 18, 5-(4-((8-(3,3-difluorocyclobutoxy)-2-methyl-3-oxo-3,4-dihydroquinoxalin-6-yl)methyl)piperazin-1-yl)-6-fluoro-N-methylpicolinamide] | 1.7 | 54.7 | 7.9 | 0.9 | 93.3 |
| CNC(=O)c1ccc(N2CCN(Cc3cc(-c4ccccc4F)c4nc(C)c(=O)[nH]c4c3)CC2)c(F)n1 [Example 8, 6-fluoro-5-(4-((8-(2-fluorophenyl)-2-methyl-3-oxo-3,4-dihydroquinoxalin-6-yl)methyl)piperazin-1-yl)-N-methylpicolinamide] | 4.1 | 657.2 | 32.2 | 23.6 | 2690 |
| CNC(=O)c1ccc(N2CCN(Cc3cc(Oc4ccccc4)c4nc(C)c(=O)[nH]c4c3)CC2)c(F)n1 [Example 4, 6-fluoro-N-methyl-5-(4-((2-methyl-3-oxo-8-phenoxy-3,4-dihydroquinoxalin-6-yl)methyl)piperazin-1-yl)picolinamide] | 1.84 | 968.5 | 4.7 | 5.3 | 1780 |
| CNC(=O)c1ccc(N2CCN(Cc3cc(OC4CCCCC4)c4nc(C)c(=O)[nH]c4c3)CC2)c(F)n1 [Example 72, 5-(4-((8-(cyclohexyloxy)-2-methyl-3-oxo-3,4-dihydroquinoxalin-6-yl)methyl)piperazin-1-yl)-6-fluoro-N-methylpyridine amide] | 1.3 | 756.9 | 9.1 | 12 | 992 |
| CNC(=O)c1ccc(N2CCN(Cc3cc(OC(F)F)c4nc(C)c(=O)[nH]c4c3F)CC2)c(C)n1 [Example 60, 5-(4-((8-(difluoromethoxy)-5-fluoro-2-methyl-3-oxo-3,4-dihydroquinoxalin-6-yl)methyl)piperazin-1-yl)-N,6-dimethylpicolinamide] | 2.9 | 2030.7 | 8.58 | 31.2 | 5820 |
| CNC(=O)c1ccc(N2CCN(Cc3cc(OC(F)F)c4nc(C)c(=O)[nH]c4c3)CC2)cn1 [Example 49, 5-(4-((8-(difluoromethoxy)-2-methyl-3-oxo-3,4-dihydroquinoxalin-6-yl)methyl)piperazin-1-yl)-N-methylpicolinamide] | 3.2 | 17.0 | 12.9 | 9.1 | 54 |
| C=Cc1cc(CN2CCN(c3ccc(C(=O)NC)nc3F)CC2)cc2[nH]c(=O)c(C)nc12 [Example 25, 6-fluoro-N-methyl-5-(4-((2-methyl-3-oxo-8-vinyl-3,4-dihydroquinoxalin-6-yl)methyl)piperazin-1-yl)picolinamide] | – | – | 1.3 | 3.5 | – |
| CNC(=O)c1ccc(N2CCN(Cc3cc(-c4ccc(F)cc4)c4nc(C)c(=O)[nH]c4c3)CC2)c(F)n1 [Example 10, 6-fluoro-5-(4-((8-(4-fluorophenyl)-2-methyl-3-oxo-3,4-dihydroquinoxalin-6-yl)methyl)piperazin-1-yl)-N-methylpicolinamide] | – | – | 7.5 | 1.7 | – |
| Cc1nc2c(OC(F)F)cc(CN3CCN(c4ccc(C(=O)NC5CC5)nc4F)CC3)c(F)c2[nH]c1=O [Example 61, N-cyclopropyl-5-(4-((8-(difluoromethoxy)-5-fluoro-2-methyl-3-oxo-3,4-dihydroquinoxalin-6-yl)methyl)piperazin-1-yl)-6-fluoropicolinamide] | – | – | 8.59 | 20.3 | – |
| CNC(=O)c1ccc(N2CCN(Cc3cc(Nc4ccccc4)c4nc(C)c(=O)[nH]c4c3)CC2)c(F)n1 [Example 5, 6-fluoro-N-methyl-5-(4-((2-methyl-3-oxo-8-(phenylamino)-3,4-dihydroquinoxalin-6-yl)methyl)piperazin-1-yl)picolinamide] | – | – | 6.1 | < 0.038 | – |
| CNC(=O)c1ccc(N2CCN(Cc3cc(OC(F)F)c4nc(C(F)F)c(=O)[nH]c4c3)CC2)c(F)n1 [Example 56, 5-(4-((8-(difluoromethoxy)-2-(difluoromethyl)-3-oxo-3,4-dihydroquinoxalin-6-yl)methyl)piperazin-1-yl)-6-fluoro-N-methylpicolinamide] | – | – | 8.3 | 14.7 | – |
